The term IC50 denotes the concentration that gives 50% inhibition.

Where a name gives a salt, the structure may show the parent alone.

For 17 compounds, IC50 results are on record in patent US12655160B2, “KRAS G12D inhibitors” (Mirati Therapeutics, Inc., priority 2020, dated 2026).

The target of one test is KRas G12D (Homo sapiens, UniProt P01116, G12D). Nature of the test: KRas G12D Binding Assay (TR-FRET displacement of labeled tracer). On the set-up: corresponding to amino acids 1:169, produced at Array BioPharma Inc; biotin (biotinylated). The conditions noted are these: TR-FRET displacement of Cy5 labelled tracer, Biotinylated GDP-loaded KRAS G12D (amino acids 1:169), 60 minute incubation at 22° C. Here is the method: This Example illustrates that exemplary compounds of the present invention bind to KRas G12D and are capable of displacing a labeled tracer ligand occupying the KRas G12D binding site. The ability of a compound to bind to KRAS G12D was measured using a TR-FRET displacement assay. Biotinylated GDP-loaded recombinant human KRAS G12D (corresponding to amino acids 1:169, produced at Array BioPharma Inc.) was incubated with a custom-made Cy5 labelled tracer, europium labelled streptavidin and compound (2% DMSO final) in buffer (50 mM HEPES [pH 7.5], 5 mM MgCl2, 0.005% Tween-20 & 1 mM DTT). After a 60 minute incubation at 22° C., the reaction was measured using a PerkinElmer EnVision multimode plate reader via TR-FRET dual wavelength detection, and the percent of control (POC) calculated using a ratiometric emission factor. […] The POC values were fit to a 4-parameter logistic curve and the IC50 value was determined as the concentration where the curve crosses 50 POC.
KRas G12D, sequence (P01116 1-169 isoform P01116-2 G12D): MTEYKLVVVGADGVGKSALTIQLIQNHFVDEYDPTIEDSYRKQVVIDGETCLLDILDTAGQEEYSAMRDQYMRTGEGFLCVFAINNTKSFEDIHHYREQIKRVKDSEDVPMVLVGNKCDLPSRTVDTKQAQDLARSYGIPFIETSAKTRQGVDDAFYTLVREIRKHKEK
(Time-resolved FRET reads energy transfer from a long-lived donor to a nearby acceptor.)

In test [1] the test system is KRas G12D-mediated Phosphorylation of ERK. In words: Inhibition of KRas G12D-mediated Phosphorylation of ERK in AGS cells. The test is classed as cell-based. To be noted: Homo sapiens; AGS cells expressing G12D, 3 hours, phospho-ERK signal normalized to GAPDH; read-out: IC50. The procedure:
AGS cells (ATCC CRL-1739) expressing G12D were grown in DMEM medium supplemented with 10% fetal bovine serum, 10 mM HEPES, and Penicillin/Streptomycin. Cells were plated in tissue culture treated 96 well plates at a density of 40,000 cells/well and allowed to attach for 12-14 hours. Diluted compounds were then added in a final concentration of 0.5% DMSO. After 3 hours, the medium was removed, 150 μl of 4.0% formaldehyde was added and the plates incubated at room temperature for 20 minutes. The plates were washed with PBS, and permeabilized with 150 μL of ice cold 100% methanol for 10 minutes. Non-specific antibody binding to the plates was blocked using 100 μL Licor blocking buffer (Li-Cor Biotechnology, Lincoln NE) for 1 hour at room temperature.
The amount of phospho-ERK was determined using an antibody specific for the phosphorylated form of ERK and compared to the amount of GAPDH. Primary antibodies used for the detection were added as follows: Phospho-ERK(Cell Signaling cs-9101) diluted 1:500 and GAPDH (Millipore MAB374) diluted 1:5000 in Licor block+0.05% Tween 20. The plates were incubated for 2 hours at room temperature. The plates were washed with PBS+0.05% Tween 20.
Secondary antibodies used to visualize primary antibodies were added as follows: Anti-rabbit-680 diluted 1:1000 and Anti-mouse-800 diluted 1:1000 both in Licor block+0.05% Tween20, and were incubated for 1 hour at room temperature. The plates were washed with PBS+0.05% Tween 20. A 100 μl aliquot of PBS was added to each well and the plates were read on a Li-Cor Odyssey CLX plate reader.
The phospho-ERK(Thr202/Tyr204 signal was normalized to the GAPDH signal for each well and percent of DMSO control values were calculated. IC50 values were generated using a 4-parameter fit of the dose response curve

Turning to `CCc1cccc2cccc(-c3ncc4c(NCC5(N(C)C)CCC5)nc(OC[C@@]56CCCN5C[C@H](F)C6)nc4c3F)c12` [Example 21, N-((1-(dimethylamino)cyclobutyl)methyl)-7-(8-ethylnaphthalen-1-yl)-8-fluoro-2-(((2R,7aS)-2-fluorotetrahydro-1H-pyrrolizin-7a(5H)-yl)methoxy)pyrido[4,3-d]pyrimidin-4-amine], the figures for the IC50 (on KRas G12D; in test [1]) were 59.2 nM and more than 16700 nM, respectively. With `C#Cc1c(F)ccc2cccc(-c3ncc4c(NCC5(N(C)C)CCC5)nc(OCC56CCCN5CCC6)nc4c3F)c12` [Example 56, N-((1-(dimethylamino)cyclobutyl)methyl)-7-(8-ethynyl-7-fluoronaphthalen-1-yl)-8-fluoro-2-((hexahydro-1H-pyrrolizin-7a-yl)methoxy)pyrido[4,3-d]pyrimidin-4-amine], the half-inhibitory concentration (IC50) at KRas G12D was 2.6 nM; in test [1] it was 350 nM. Take `C#Cc1c(F)ccc2cc(O)cc(-c3ncc4c(NCC5(N(C)C)CCC5)nc(OC[C@]56CCCN5[C@@H](COC(=O)N(C)C)CC6)nc4c3F)c12` [Example 45, ((3R,7aR)-7a-(((4-(((1-(dimethylamino)cyclobutyl)methyl)amino)-7-(8-ethynyl-7-fluoro-3-hydroxynaphthalen-1-yl)-8-fluoropyrido[4,3-d]pyrimidin-2-yl)oxy)methyl)hexahydro-1H-pyrrolizin-3-yl)methyl dimethylcarbamate]: the concentration for half-maximal inhibition (IC50) on KRas G12D was 0.4 nM; in test [1], 38.3 nM. As to `C#Cc1cccc2cccc(-c3ncc4c(NCC5(N(C)C)CCC5)nc(OC[C@@]56CCCN5C[C@H](F)C6)nc4c3F)c12` [Example 20, N-((1-(dimethylamino)cyclobutyl)methyl)-7-(8-ethynylnaphthalen-1-yl)-8-fluoro-2-(((2R,7aS)-2-fluorotetrahydro-1H-pyrrolizin-7a(5H)-yl)methoxy)pyrido[4,3-d]pyrimidin-4-amine bis(2,2,2-trifluoroacetate)], the IC50 turned out to be 22 nM at KRas G12D and 2510 nM in test [1]. Consider `Oc1cc(-c2ncc3c(NC4CNC4)nc(OCC45CCCN4CCC5)nc3c2F)c2ccccc2c1` [Example 18, 4-(4-(azetidin-3-ylamino)-8-fluoro-2-((tetrahydro-1H-pyrrolizin-7a(5H)-yl)methoxy)pyrido[4,3-d]pyrimidin-7-yl)naphthalen-2-ol], for which the IC50 on KRas G12D was 46.5 nM; in test [1] it was more than 16700 nM.

For `CCc1c(F)ccc2cc(O)cc(-c3ncc4c(NCC5(N(C)C)CCC5)nc(OC[C@]56CCCN5[C@@H](COC(=O)N(C)C)CC6)nc4c3F)c12` [Example 46, ((3R,7aR)-7a-(((4-(((1-(dimethylamino)cyclobutyl)methyl)amino)-7-(8-ethyl-7-fluoro-3-hydroxynaphthalen-1-yl)-8-fluoropyrido[4,3-d]pyrimidin-2-yl)oxy)methyl)hexahydro-1H-pyrrolizin-3-yl)methyl dimethylcarbamate], the half-maximal inhibitory concentration (IC50) at KRas G12D worked out at 0.7 nM; in test [1], 38.7 nM. In the same order, the values of `CN[C@H]1C[C@@H](Nc2nc(OCC34CCCN3CCC4)nc3c(F)c(-c4cc(O)cc5ccccc45)ncc23)C1` [Example 17, 4-(8-fluoro-4-(((1s,3s)-3-(methylamino)cyclobutyl)amino)-2-((tetrahydro-1H-pyrrolizin-7a(5H)-yl)methoxy)pyrido[4,3-d]pyrimidin-7-yl)naphthalen-2-ol bis(2,2,2-trifluoroacetate)] are 80.9 nM and more than 16700 nM. For `CN(C)C(=O)OC[C@H]1CC[C@@]2(COc3nc(NCC4(N(C)C)CCC4)c4cnc(-c5cccc6cccc(Cl)c56)c(F)c4n3)CCCN12` [Example 51, ((3R,7aR)-7a-(((7-(8-chloronaphthalen-1-yl)-4-(((1-(dimethylamino)cyclobutyl)methyl)amino)-8-fluoropyrido[4,3-d]pyrimidin-2-yl)oxy)methyl)hexahydro-1H-pyrrolizin-3-yl)methyl dimethylcarbamate], in that order: 102 nM and more than 16700 nM. `CCc1cccc2cc(O)cc(-c3ncc4c(NCC5(N(C)C)CCCC5)nc(OC[C@@]56CCCN5C[C@H](F)C6)nc4c3F)c12` [Example 34, 4-(4-(((1-(dimethylamino)cyclopentyl)methyl)amino)-8-fluoro-2-(((2R,7aS)-2-fluorotetrahydro-1H-pyrrolizin-7a(5H)-yl)methoxy)pyrido[4,3-d]pyrimidin-7-yl)-5-ethylnaphthalen-2-ol dihydrochloride] displayed an IC50 on KRas G12D of 1.1 nM. `NC1CC(Nc2nc(OCC34CCCN3CCC4)nc3c(F)c(-c4cccc5cccc(F)c45)ncc23)C12CCC2` (stereo not shown) [Example 62, N^1-(8-fluoro-7-(8-fluoronaphthalen-1-yl)-2-((hexahydro-1H-pyrrolizin-7a-yl)methoxy)pyrido[4,3-d]pyrimidin-4-yl)spiro[3.3]heptane-1,3-diamine] came in with a concentration for half-maximal inhibition (IC50) on KRas G12D of 203 nM. On the same count and under the same terms, under `CC(C)c1ccccc1-c1ncc2c(NCC3(N(C)C)CCC3)nc(OCC34CCCN3CCC4)nc2c1F` [Example 9, N-((1-(dimethylamino)cyclobutyl)methyl)-8-fluoro-7-(2-isopropylphenyl)-2-((tetrahydro-1H-pyrrolizin-7a(5H)-yl)methoxy)pyrido[4,3-d]pyrimidin-4-amine bis(2,2,2-trifluoroacetate)] stands 2170 nM; under `CN(C)C1(CNc2nc(OCCc3nccn3C)nc3c(F)c(-c4cc(O)cc5ccccc45)ncc23)CCC1` [Example 31], 857 nM.

As for `C=C(C)c1cccc2cccc(-c3ncc4c(NCC5(N(C)C)CCC5)nc(OCC56CCCN5C[C@H](F)C6)nc4c3F)c12` (mixture of isomers) [Example 24, N-((1-(dimethylamino)cyclobutyl)methyl)-8-fluoro-2-(((2S,7aR)-2-fluorotetrahydro-1H-pyrrolizin-7a(5H)-yl)methoxy)-7-(8-(prop-1-en-2-yl)naphthalen-1-yl)pyrido[4,3-d]pyrimidin-4-amine], the IC50 at KRas G12D turned out to be 954 nM.

Take `CN(C)C1(CNc2nc(OCC34CCCN3CCC4)nc3c(F)c(-c4cccc5cccc(F)c45)ncc23)CCC1` [Example 14, N-((1-(dimethylamino)cyclobutyl)methyl)-8-fluoro-7-(8-fluoronaphthalen-1-yl)-2-((hexahydro-1H-pyrrolizin-7a-yl)methoxy)pyrido[4,3-d]pyrimidin-4-amine]: the IC50 at KRas G12D amounted to 306 nM. On the same count and under the same terms, under `CC#Cc1cccc2cccc(-c3ncc4c(NCC5(N(C)C)CCC5)nc(OC[C@@]56CCCN5C[C@H](F)C6)nc4c3F)c12` [Example 27, N-((1-(dimethylamino)cyclobutyl)methyl)-8-fluoro-2-(((2R,7aS)-2-fluorotetrahydro-1H-pyrrolizin-7a(5H)-yl)methoxy)-7-(8-(prop-1-yn-1-yl)naphthalen-1-yl)pyrido[4,3-d]pyrimidin-4-amine] stands 1880 nM. `Oc1cc(-c2ncc3c(NC[C@]45C[C@H]4CCN5)nc(OC[C@@]45CCCN4C[C@H](F)C5)nc3c2F)c2ccccc2c1` [Example 40, 4-(4-((((1S,5R)-2-azabicyclo[3.1.0]hexan-1-yl)methyl)amino)-8-fluoro-2-(((2R,7aS)-2-fluorotetrahydro-1H-pyrrolizin-7a(5H)-yl)methoxy)pyrido[4,3-d]pyrimidin-7-yl)naphthalen-2-ol bis(2,2,2-trifluoroacetate)] gave a concentration for half-maximal inhibition (IC50) at KRas G12D of 5150 nM. For the compound `CN(C)C(C)(C)CNc1nc(OCC23CCCN2CCC3)nc2c(F)c(-c3cccc4cccc(Cl)c34)ncc12` [Example 55, N^1-(7-(8-chloronaphthalen-1-yl)-8-fluoro-2-((hexahydro-1H-pyrrolizin-7a-yl)methoxy)pyrido[4,3-d]pyrimidin-4-yl)-N^2,N^2,2-trimethylpropane-1,2-diamine], at KRas G12D, the IC50 was 938 nM.
